Assay results: patent US12630510B2, “EP2 antagonist” (ONO PHARMACEUTICAL CO., LTD., priority 2019, dated 2026)

Molecular target: T1, human EP2 receptor (Homo sapiens, UniProt P43116)
T1 construct: expressed in transfected cells; host or cells: CHO cells
Assay: Experiment of measuring EP2 antagonistic activity using cells expressing prostanoid receptor (cAMP)
Format: cell-based
Conditions: CHO cells expressing human EP2 receptor; PGE2 10 nmol/L; cAMP quantified after 1 hour at room temperature; read-out: EP2_IC50
Protocol: CHO cells on each of which a human EP2 receptor had been expressed were prepared in accordance with the method by Nishigaki et al, (FEBS Letters, vol. 364, pp. 339-341, 1995) and were then cryopreserved in CELLBANKER2 (Nippon Zenyaku Kogyo Co., Ltd.) at a concentration of 1.5×10^7 cells/mL/vial. The CHO cells thus prepared were used in the experiment. The cells were thawed, and were then suspended in an assay medium (D-PBS containing 1 mmol/L IBMX, 2 μmol/L Diclofenac) at a concentration of 5×10^5 cells/mL. PGE2 alone having a final concentration of 10 nmol/L or a solution (10 μL) containing the PGE2 and a test compound was added to the cell suspension (10 μL) to initiate the reaction. After the reaction was performed at room temperature for 1 hour, the amount of cAMP in the cells was quantified in accordance with the method described in cAMP Gs Dynamic kit (CISBIO).
The antagonistic activity (IC50 value) of a test compound was calculated as a percentage of suppression of the reaction at 10 nM, which was a concentration at which a submaximal cAMP production activity was observed when PGE2 alone was employed. In this manner, an IC50 value was determined.

T1 sequence (P43116 whole entry): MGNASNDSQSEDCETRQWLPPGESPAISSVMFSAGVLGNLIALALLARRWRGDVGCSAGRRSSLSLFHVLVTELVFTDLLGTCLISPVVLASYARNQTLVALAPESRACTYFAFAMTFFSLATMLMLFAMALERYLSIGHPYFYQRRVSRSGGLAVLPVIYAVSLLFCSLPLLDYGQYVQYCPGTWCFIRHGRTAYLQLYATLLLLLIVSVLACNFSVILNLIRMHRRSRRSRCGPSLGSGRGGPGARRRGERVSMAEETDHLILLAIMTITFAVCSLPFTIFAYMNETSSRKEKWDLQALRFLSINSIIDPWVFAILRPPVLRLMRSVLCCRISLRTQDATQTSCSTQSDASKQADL

IC50 [nM] | Structure (SMILES)
2.2 | Cc1cc(OCCc2ccccc2)cc(C)c1C(=O)Nc1cc([C@H]2C[C@H]2C(=O)O)ccc1C(F)(F)F (racemic) [Example 11, rel-(1R,2S)-2-[3-{[2,6-Dimethyl-4-(2-phenylethoxy)benzoyl]amino}-4-(trifluoromethyl)phenyl]cyclopropanecarboxylic acid]
< 0.3 | CCC(C)n1c(CCCc2ccccc2)ccc1C(=O)Nc1cc([C@H]2C[C@H]2C(=O)O)ccc1C(F)(F)F (relative stereo) [Example 1, rel-(1R,2S)-2-[3-({[1-sec-Butyl-5-(3-phenylpropyl)-1H-pyrrole-2-carbonyl]amino)-4-(trifluoromethyl)phenyl]cyclopropanecarboxylic acid]
1.6 | CC[C@H](C)n1c(CCCc2ccccc2)ccc1C(=O)Nc1cc([C@H]2C[C@H]2C(=O)O)ccc1C(F)(F)F (relative stereo) [Example 2, rel-(1R,2S)-2-{3-[({1-[(2S)-2-Butanyl]-5-(3-phenylpropyl)-1H-pyrrol-2-yl}carbonyl)amino]-4-(trifluoromethyl)phenyl}cyclopropanecarboxylic acid]
5.4 | CC[C@H](C)n1c(CCCc2ccccc2)ccc1C(=O)Nc1cc(C)cc([C@H]2C[C@H]2C(=O)O)c1 (relative stereo) [Example 2-1, rel-(1R,2S)-2-{3-[({1-[(2S)-2-Butanyl]-5-(3-phenylpropyl)-1H-pyrrol-2-yl}carbonyl)amino]-5-methylphenyl}cyclopropanecarboxylic acid]
33 | CC[C@H](C)n1c(CCCc2ccccc2)ccc1C(=O)Nc1cc(C)cc([C@@H]2C[C@H]2C(=O)O)c1 (relative stereo) [Example 2-2, rel-(1R,2R)-2-{3-[({1-[(2S)-2-Butanyl]-5-(3-phenylpropyl)-1H-pyrrol-2-yl}carbonyl)amino]-5-methylphenyl}cyclopropanecarboxylic acid]
2.1 | CC(C)n1c(CCCc2ccccc2)ccc1C(=O)Nc1cc([C@@H]2C[C@@H]2C(=O)O)ccc1C(F)(F)F [Example 3-1, (1S,2R)-2-[3-({[1-Isopropyl-5-(3-phenylpropyl)-1H-pyrrol-2-yl]carbonyl}amino)-4-(trifluoromethyl)phenyl]cyclopropanecarboxylic acid]
77 | CC(C)n1c(CCCc2ccccc2)ccc1C(=O)Nc1cc([C@@H]2C[C@H]2C(=O)O)ccc1C(F)(F)F [Example 3-2, (1R,2R)-2-[3-({[1-Isopropyl-5-(3-phenylpropyl)-1H-pyrrol-2-yl]carbonyl}amino)-4-(trifluoromethyl)phenyl]cyclopropanecarboxylic acid]
2.6 | CC[C@H](C)n1c(CCCc2ccccc2)ccc1C(=O)Nc1cc([C@H]2C[C@H]2C(=O)O)ccc1OC [Example 4, (1R,2S)-2-{3-[({1-[(2S)-2-Butanyl]-5-(3-phenylpropyl)-1H-pyrrol-2-yl}carbonyl)amino]-4-methoxyphenyl}cyclopropanecarboxylic acid]
2.5 | CC[C@H](C)n1c(CCCc2ccccc2)ccc1C(=O)Nc1cc([C@@H]2C[C@@H]2C(=O)O)ccc1C(F)(F)F [Example 5, (1S,2R)-2-{3-[({1-[(2S)-2-Butanyl]-5-(3-phenylpropyl)-1H-pyrrol-2-yl}carbonyl)amino]-4-(trifluoromethyl)phenyl}cyclopropanecarboxylic acid]
< 0.3 | CC[C@H](C)n1c(CCCc2ccccc2)ccc1C(=O)Nc1cc([C@H]2C[C@H]2C(=O)O)ccc1C(F)(F)F [Example 6, (1R,2S)-2-{3-[({1-[(2S)-2-Butanyl]-5-(3-phenylpropyl)-1H-pyrrol-2-yl}carbonyl)amino]-4-(trifluoromethyl)phenyl}cyclopropanecarboxylic acid]
0.3 | CC[C@H](C)n1c(CCCc2ccccc2)ccc1C(=O)Nc1cc([C@H]2C[C@H]2C(=O)O)ccc1Cl [Example 7, (1R,2S)-2-{3-[({1-[(2S)-2-Butanyl]-5-(3-phenylpropyl)-1H-pyrrol-2-yl}carbonyl)amino]-4-chlorophenyl}cyclopropanecarboxylic acid]
